Counter-ions that a name gives are not always drawn. Like-named read-outs stand apart in the source and are kept apart here.
Experiments:
CCK-A = target: T1, CCK-A (Rattus norvegicus, UniProt P30551); test: biochemical; type: binding; conditions: rat pancreas (CCK-A), 125I-CCK
T1 sequence (P30551 1-444): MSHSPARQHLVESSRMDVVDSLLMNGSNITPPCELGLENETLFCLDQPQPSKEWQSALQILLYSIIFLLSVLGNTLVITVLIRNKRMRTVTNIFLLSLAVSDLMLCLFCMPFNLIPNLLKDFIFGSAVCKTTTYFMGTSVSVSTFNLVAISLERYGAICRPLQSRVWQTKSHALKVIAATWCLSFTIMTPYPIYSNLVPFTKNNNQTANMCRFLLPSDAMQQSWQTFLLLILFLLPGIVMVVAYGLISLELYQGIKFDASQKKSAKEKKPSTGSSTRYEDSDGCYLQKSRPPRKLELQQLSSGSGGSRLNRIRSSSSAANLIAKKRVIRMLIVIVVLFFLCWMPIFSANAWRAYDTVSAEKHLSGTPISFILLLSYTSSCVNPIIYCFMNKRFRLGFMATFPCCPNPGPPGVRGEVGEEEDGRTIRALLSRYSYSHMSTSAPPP
Protocol: (§1) The CCK-A and CCK-B antagonising activity of the compounds described herein was evaluated using the assays described in published European patent application no. 0514133. The method essentially involves determining the concentration of the test compound required to displace 50% of the specific ^125 I-CCK from rat pancreas (CCK-A) or guinea pig brain (CCK-B).

CCK-B = target: T2, CCK-B (Cavia porcellus, UniProt H0VZC5); test: displacement of specific 125I-CCK from guinea pig brain (CCK-B receptor binding)
T2 construct: guinea pig brain (CCK-B); from tissue; host or cells: guinea pig brain
T2 sequence (H0VZC5 1-426): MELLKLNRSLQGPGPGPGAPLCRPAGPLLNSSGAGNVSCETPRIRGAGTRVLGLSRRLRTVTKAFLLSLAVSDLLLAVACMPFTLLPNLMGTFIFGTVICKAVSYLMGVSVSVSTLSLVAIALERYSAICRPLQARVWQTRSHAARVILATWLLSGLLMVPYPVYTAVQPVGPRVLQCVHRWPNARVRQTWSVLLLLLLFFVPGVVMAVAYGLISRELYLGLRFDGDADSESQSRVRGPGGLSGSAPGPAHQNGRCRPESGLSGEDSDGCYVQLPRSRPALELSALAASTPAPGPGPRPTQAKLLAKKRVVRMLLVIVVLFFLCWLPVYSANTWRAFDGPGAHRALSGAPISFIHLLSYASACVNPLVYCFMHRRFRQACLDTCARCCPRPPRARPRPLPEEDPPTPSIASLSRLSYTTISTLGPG
Protocol: as §1, with “(CCK-B). The data in Table 1 were obtained for compounds of the Examples.” for “(CCK-B).”

[1] = read-out: CCK RECEPTOR BINDING RESULTS IC50 125I-CCK Pancreas
[2] = read-out: CCK RECEPTOR BINDING RESULTS IC50 125I-CCK Brain
[3] = CCK RECEPTOR BINDING RESULTS IC50 125I-CCK Brain

Row | SMILES | IC50 (CCK-A; [1]) | IC50 (CCK-B; [2]) | IC50 (CCK-A; CCK RECEPTOR BINDING RESULTS IC50 125I-CCK Pancreas) | IC50 (CCK-B; [3])
1 | CCCN1C(=O)C(NC(=O)Nc2cccc(C)c2)N=C(N2CCC3(CC2)OCCO3)c2ccccc21 (racemic) [Example 1, N-[3(R,S)-2,3-Dihydro-5-(1,4-dioxa-8-azaspiro[4,5]decan-8-yl)-2-oxo-1-propyl-1H-1,4-benzodiazepin-3-yl]N'-[3-methylphenyl]urea] | 0.724 µM | 0.0148 µM | – | –
2 | CCCN1C(=O)C(NC(=O)Nc2cccc(C)c2)N=C(N2CCC(=O)CC2)c2ccccc21 (racemic) [Example 2, N-[3(R,S)-2,3-Dihydro-2-oxo-5-(4-oxopiperidin-1-yl)-1-propyl-1H-1,4-benzodiazepin-3-yl]N'-[3-methylphenyl] urea] | 0.871 µM | 0.00202 µM | – | –
3 | CCCN1C(=O)C(NC(=O)Nc2cccc(C)c2)N=C(N2CCC(NCC(F)(F)F)CC2)c2ccccc21 (racemic) [Example 3, N-[3(R,S)-2,3-Dihydro-2-oxo-1-propyl-5-(4-[1,1,1-trifluoroethylamine]piperidin-1-yl)-1H-1,4-benzodiazepin-3-yl]N'-[3-methylphenyl]urea] | 0.544 µM | 0.0116 µM | – | –
4 | CN1C(=O)C(NC(=O)Nc2ccc3c(c2)CCC3)N=C(N2CCC(C)(C)CC2)c2ccccc21 (racemic) [Example 4, N-[3(R,S)-2,3-Dihydro-5-(4,4-dimethylpiperidin-1-yl)-1-methyl-2-oxo-1H-1,4-benzodiazepin-3-yl]N'-[indan-5-yl]urea] | 0.035 µM | 0.00119 µM | – | –
5 | Cc1cccc(NC(=O)NC2N=C(N3CCC(C)CC3)c3ccccc3N(C)C2=O)c1 (racemic) [Example 7, N-[3(R,S)-2,3-Dihydro-1-methyl-5-(4-methylpiperidin-1-yl)-2-oxo-1H-1,4-benzodiazepin-3-yl]N'-[3-methylphenyl]urea] | 0.00774 µM | 0.00164 µM | – | –
6 | Cc1cccc(NC(=O)NC2N=C(N3CCC(C)(C)CC3)c3ccccc3N(C)C2=O)c1 (racemic) [Example 9, N-[3(R,S)-2,3-Dihydro-5-(4,4-dimethylpiperidin-1-yl)-1-methyl-2-oxo-1H-1,4-benzodiazepin-3-yl]N'-[3-methylphenyl]urea] | 0.00897 µM | 0.00021 µM | – | –
7 | COC1CCN(C2=NC(NC(=O)Nc3cccc(C)c3)C(=O)N(C)c3ccccc32)CC1 (racemic) [Example 11, N-[3(R,S)-2,3-Dihydro-5-(4-methoxypiperidin-1-yl)-1-methyl-2-oxo-1H-1,4-benzodiazepin-3-yl]N'-[3-methylphenyl]urea] | 0.0252 µM | 0.00422 µM | – | –
8 | CCCN1C(=O)C(NC(=O)Nc2cccc(C)c2)N=C(N2CCC(C)CC2)c2ccccc21 (racemic) [Example 17, N-[3(R,S)-2,3-Dihydro-5-(4-methylpiperidin-1-yl)-2-oxo-1-propyl-1H-1,4-benzodiazepin-3-yl]N'-[3-methylphenyl]urea] | 0.0272 µM | 0.0002 µM | – | –
9 | Cc1cccc(NC(=O)NC2N=C(N3CCC(C)(C)CC3)c3ccccc3N(CC(F)(F)F)C2=O)c1 (racemic) [Example 27, N-[3(R,S)-2,3-Dihydro-5-(4,4,dimethylpiperidin-1-yl)-2-oxo-1-(2,2,2-trifluoroethyl)-1H-1,4-benzodiazepin-3-yl]N'-(3-methylphenyl) urea] | 0.015 µM | 0.033 µM | – | –
10 | Cc1cccc(NC(=O)NC2N=C(N3CC4CCC(CC4)C3)c3ccccc3N(C)C2=O)c1 (racemic) [Example 31, N-[3(R,S)-5-(3-Azabicyclo[3,2,2]nonan-3-yl)-2,3-dihydro-1-methyl-2-oxo-1H-1,4-benzodiazepin-3-yl]-N'-[3-methylphenyl]urea] | – | – | 0.02 µM | 0.00053 µM
11 | CN1C(=O)C(NC(=O)Nc2cccc(F)c2)N=C(N2CC3CCC(CC3)C2)c2ccccc21 (racemic) [Example 35, N-[3(R,S)-5-(3-Azabicyclo[3,2,2]nonan-3-yl)-2,3-dihydro-1-methyl-2-oxo-1H-1,4-benzodiazepin-3-yl]-N'-[3-fluorophenyl]urea] | 0.0396 µM | – | – | 0.00082 µM
12 | Cc1cccc(NC(=O)NC2N=C(N3CC4CCC(C4)C3)c3ccccc3N(C)C2=O)c1 (racemic) [Example 38, N-[3(R,S)-5-(3-Azabicyclo[3,2,1]octan-3-yl)-2,3-dihydro-1-methyl-2-oxo-1H-1,4-benzodiazepin-3-yl]-N'-[3-methylphenyl]urea] | 0.00793 µM | 0.00071 µM | – | –
13 | CN1C(=O)C(NC(=O)Nc2cccc(C(F)(F)F)c2)N=C(N2CC3CCC(CC3)C2)c2ccccc21 (racemic) [Example 42, N-[3(R,S)-5-(3-Azabicyclo[3,2,2]nonan-3-yl)-2,3-dihydro-1-methyl-2-oxo-1H-1,4-benzodiazepin-3-yl]-N'-[3-trifluoromethyl-phenyl]urea] | 0.0804 µM | – | – | 0.00179 µM
14 | CCCN1C(=O)C(NC(=O)Nc2cccc(C)c2)N=C(N2CC3CCC(C2)N3C)c2ccccc21 (racemic) [Example 43, N-[3(R,S)-2,3-Dihydro-5-(8-methyl-3,8-diazabicyclo[3,2,1]octan-3-yl)-2-oxo-1-propyl-1H-1,4-benzodiazepin-3-yl]-N'-[3-methylphenyl]urea] | > 3 µM | – | – | 0.0483 µM
15 | Cc1ccc(NC(=O)NC2N=C(N3CC4CCC(CC4)C3)c3ccccc3N(C)C2=O)cc1F (racemic) [Example 44, N-(3(R,S)-5-(3-Azabicyclo[3,2,2]nonan-3-yl)-2,3-dihydro-1-methyl-2-oxo 1H-1,4-benzodiazepin-3-yl]-N'-[3-fluoro-4-methylphenyl]urea] | 0.0702 µM | – | – | 0.00052 µM
16 | CN1C(=O)C(NC(=O)Nc2cccc(I)c2)N=C(N2CC3CCC(CC3)C2)c2ccccc21 (racemic) [Example 47, N-[3(R,S)-5-(3-Azabicyclo[3,2,2]nonan-3-yl)-2,3-dihydro-1-methyl-2-oxo-1H-1,4-benzodiazepin-3-yl]-N'-[3-iodophenyl]urea] | 0.0266 µM | – | – | 0.00101 µM
17 | CN1C(=O)C(NC(=O)Nc2ccccc2)N=C(N2CC3CCC(CC3)C2)c2ccccc21 (racemic) [Example 50, N-[3(R,S)-5-(3-Azabicyclo[3,2,2]nonan-3-yl)-2,3-dihydro-1-methyl-2-oxo-1H-1,4-benzodiazepin-3-yl]-N'-[phenyl]urea] | 0.01 µM | – | – | 0.0039 µM
18 | Cc1cccc(NC(=O)NC2N=C(N3CC4CCC3CC4)c3ccccc3N(C)C2=O)c1 (racemic) [Example 51, N-[3(R,S)-5-(2-Azabicyclo[2,2,2]octan-2-yl)-2,3-dihydro-1-methyl-2-oxo-1H-1,4-benzodiazepin-3-yl]-N'-[3-methylphenyl]urea] | 0.0285 µM | 0.00549 µM | – | –
19 | Cc1cc(NC(=O)NC2N=C(N3CC4CCC(CC4)C3)c3ccccc3N(C)C2=O)ccc1F (racemic) [Example 52, N-[3(R,S)-5-(3-Azabicyclo[3,2,2]nonan-3-yl)-2,3-dihydro-1-methyl-2-oxo-1H-1,4-benzodiazepin-3-yl)-N'-[4-fluoro-3-methylphenyl]urea] | 0.0185 µM | – | – | 0.00025 µM
20 | CCCN1C(=O)C(NC(=O)Nc2cccc(C)c2)N=C(N(C)C2CCCCC2)c2ccccc21 (racemic) [Example 60, N-[3(R,S)-5-(N-Cyclohexyl-N-methylamino)-2,3-dihydro-2-oxo-1-propyl-1H-1,4-benzodiazepin-3-yl]-N'-[3-methylphenyl]urea] | 0.186 µM | 0.00256 µM | – | –
21 | Cc1cccc(NC(=O)NC2N=C(N(C)C3CCCCC3)c3ccccc3N(C)C2=O)c1 (racemic) [Example 63, N-[3(R,S)-5-(N-Cyclohexyl-N-methylamino)-2,3-dihydro-1-methyl-2-oxo-1H-1,4-benzodiazepin-3-yl]-N'-[3-methylphenyl]urea] | 0.304 µM | 0.00136 µM | – | –
22 | Cc1cccc(NC(=O)NC2N=C(N3CC4CCC(CC4)C3)c3ccccc3N(C)C2=O)c1 (single isomer, unassigned; (-)) [Example 33, (-)-N-[5-(3-Azabicyclo[3,2,2]nonan-3-yl)-2,3-dihydro-1-methyl-2-oxo-1H-1,4-benzodiazepin-3-yl]-N'-[3-methylphenyl]urea Hydrochloride] | – | – | – | 0.0001 µM
